According to PMC13128454, “Mutant p53 protein accumulation is selectively targetable by proximity-inducing drugs” (Nature Chemical Biology, 2025):
pEC50, pIC50: −log10 of the molar value. Several values for one entry are separate records, joined by “and”; a condition that tells them apart may be missing. Equal values may be shown once. Read-outs that look alike come from different tables or passages of the source.

Tests used:
Type in all cases: cell-based
[1] = test system: Halo–p53-R273H (FL)–mCherry 293T cells versus parental 293T cells; test: flow-cytometry growth competition; conditions: for normalized_mCherry_percentage: R273H, day 8, normalized to DMSO
Summary of the method: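 Marker-positive and marker-negative cells mixed, plated at low density and treated with varying compound concentrations, passaged and retreated as needed. Fluorophore-positive versus negative fractions quantified by flow cytometry, gated on untreated mixtures.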

[2] = target: T1, p53-Y220C–PLK1 ternary complex (Homo sapiens, UniProt P04637+P53350, M133L/N239Y/N268D/V203A/Y220C); test: NanoBiT ternary complex assay in cotransfected 293T cells; conditions: for NLuc Signal, Average: 0 nM: 323
T1 construct: NLS–LgBiT–p53-Y220C (DBD) and mEGFP–PLK1–SmBiT; expressed in transfected cells; host or cells: 293T cells, transient cotransfection
From the text: After 1 day, the cells were passaged into 384-well plates and treated with varying concentrations of compound.

[3] = CellTiter-Glo cell viability; design: p5301_AUC_to_10uM / AUC_rezatapopt: scale not given here; viability, replicates (sheet 4G): unit not given here; conditions: human, MFE319 cells, No PMV6, read-out: viability, replicates (sheet 4G)
Method: (§1) Cells were plated in 384-well plates (typically 1,500 cells per well) with varying concentrations of compounds, with a total volume of 50 μl per well. CTG reagent was added (25 μl) to the solutions, mixed and read out using an EnVision 2105 multimode plate reader.

[4] = test system: MFE319 cells; test: CellTiter-Glo cell viability; design: p5301_AUC_to_10uM / AUC_rezatapopt: scale not given here; viability, replicates (sheet 4G): unit not given here; conditions: for mean_norm (normalized viability): 4 day; for viability, replicates (sheet 4G): No PMV6
Method: as §1

[5] = Concentration 2.44141 nM, 1 day
[6] = Concentration 4.88281 nM, 1 day
[7] = Concentration 9.76562 nM, 1 day
[8] = Concentration 19.5312 nM, 1 day
[9] = Concentration 39.0625 nM, 1 day
[10] = p53-01 Concentration (µM) 0.0390625
[11] = p53-01 Concentration (µM) 0.078125
[12] = p53-01 Concentration (µM) 0.625

CC[C@@H]1C(=O)N(C)c2cnc(Nc3ccc(C(=O)NCCOCCOCCOCCOCCC(=O)N4CCC(Nc5cccc6c5cc(C#CCNc5ccc(S(C)(=O)=O)cc5OC)n6CC(F)(F)F)CC4)cc3OC)nc2N1C1CCCC1 [p53-01, PMV6-PEG4-BI2536]
normalized_mCherry_percentage ([1]; 1 nM): 95.51% | normalized_mCherry_percentage ([1]; 10 nM): 97.26% | normalized_mCherry_percentage ([1]; 100 nM): 96.23% | normalized_mCherry_percentage ([1]; 1 uM): 90.97% | activity in competition ([1]; day 8): did not observe any activity | pEC50 ([2]; 24 h, n = 4, read-out: NanoBiT EC50): 5.67 | pEC50 ([2]; 1 day, n = 6, Fig. 3b, read-out: EC50 NanoBiT ternary complex formation): 5.85 | NLuc Signal (replicate) ([2]; Concentration 1.2207 nM, 1 day): 300 and 316 and 296 and 324 and 308 | NLuc Signal, Average ([2]; Concentration 1.2207 nM, 1 day): 310 | NLuc Signal (replicate) [2, 5]: 356 and 348 and 308 and 360 and 340 and 324 | NLuc Signal, Average [2, 5]: 339.333 | NLuc Signal (replicate) [2, 6]: 316 and 344 and 284 and 312 and 332 | NLuc Signal, Average [2, 6]: 317.333 | NLuc Signal (replicate) [2, 7]: 328 and 336 and 296 and 308 and 312 and 360 | NLuc Signal, Average [2, 7]: 323.333 | NLuc Signal (replicate) [2, 8]: 352 and 360 and 304 and 296 and 324 and 300 | NLuc Signal, Average [2, 8]: 322.667 | NLuc Signal (replicate) [2, 9]: 404 and 356 and 324 and 368 and 332 and 364 | NLuc Signal, Average [2, 9]: 358 | NLuc Signal (replicate) ([2]; Concentration 78.125 nM, 1 day): 312 and 292 and 400 and 392 and 356 | NLuc Signal, Average ([2]; Concentration 78.125 nM, 1 day): 351.333 | NLuc Signal (replicate) ([2]; Concentration 156.25 nM, 1 day): 380 and 352 and 372 and 324 and 360 and 332 | NLuc Signal, Average ([2]; Concentration 156.25 nM, 1 day): 353.333 | NLuc Signal (replicate) ([2]; Concentration 312.5 nM, 1 day): 428 and 364 and 392 and 404 and 488 | NLuc Signal, Average ([2]; Concentration 312.5 nM, 1 day): 413.333 | NLuc Signal (replicate) ([2]; Concentration 625 nM, 1 day): 484 and 444 and 472 and 448 and 420 and 408 | NLuc Signal, Average ([2]; Concentration 625 nM, 1 day): 446 | NLuc Signal (replicate) ([2]; Concentration 1250 nM, 1 day): 704 and 792 and 644 and 588 | NLuc Signal, Average ([2]; Concentration 1250 nM, 1 day): 660 | NLuc Signal (replicate) ([2]; Concentration 2500 nM, 1 day): 988 and 1108 and 1092 and 1436 and 1288 | NLuc Signal, Average ([2]; Concentration 2500 nM, 1 day): 1167.33 | NLuc Signal (replicate) ([2]; Concentration 5000 nM, 1 day): 1240 and 1080 and 1140 and 1304 and 1104 and 1468 | NLuc Signal, Average ([2]; Concentration 5000 nM, 1 day): 1222.67 | NLuc Signal (replicate) ([2]; Concentration 10000 nM, 1 day): 1052 and 1356 and 1056 and 1192 and 1180 and 1372 | NLuc Signal, Average ([2]; Concentration 10000 nM, 1 day): 1201.33 | NanoBiT mean_norm ([2]; Concentration 19.5312): 1.047 | NanoBiT mean_norm ([2]; Concentration 39.0625): 1.0545 | NanoBiT mean_norm ([2]; Concentration 78.125): 1.0649 | NanoBiT mean_norm ([2]; Concentration 156.25): 1.0584 | NanoBiT mean_norm ([2]; Concentration 312.5): 1.026 | NanoBiT mean_norm ([2]; Concentration 625): 1.182 | NanoBiT mean_norm ([2]; Concentration 1250): 1.238 | NanoBiT mean_norm ([2]; Concentration 2500): 1.362 | NanoBiT mean_norm ([2]; Concentration 5000): 1.592 | NanoBiT mean_norm ([2]; Concentration 10000): 1.5997 | ternary complex formation between p53-Y220C and PLK1 ([2]; NanoBiT, 1 day): induce ternary complex formation | Max_effect ([2]; sheet 5C): 1.5997 | pEC50 ([2]; sheet 5C, read-out: EC50): 5.67 | viability at 0.0390625 µM [3, 10]: 94% | viability at 0.078125 µM [3, 11]: 99.7% | viability at 0.625 µM [3, 12]: 85.4% | viability at 1.25 µM ([3]; p53-01 Concentration (µM) 1.25): 61.2% | viability at 2.5 µM ([3]; p53-01 Concentration (µM) 2.5): 41.5% | viability at 5 µM ([3]; p53-01 Concentration (µM) 5): 30% | viability at 10 µM ([3]; p53-01 Concentration (µM) 10): 22.2% | pIC50 ([4]; 96 h, MFE319, 4 day treatment): 5.90 | p5301_AUC_to_10uM ([4]; MFE319): 0.3547 | mean_norm (normalized viability) ([4]; MFE319, Concentration 39.0625): 0.968 | mean_norm (normalized viability) ([4]; MFE319, Concentration 78.125): 0.9234 | mean_norm (normalized viability) ([4]; MFE319, Concentration 156.25): 0.9253 | mean_norm (normalized viability) ([4]; MFE319, Concentration 312.5): 0.9948 | mean_norm (normalized viability) ([4]; MFE319, Concentration 625): 0.9099 | mean_norm (normalized viability) ([4]; MFE319, Concentration 1250): 0.6095 | mean_norm (normalized viability) ([4]; MFE319, Concentration 2500): 0.3193 | mean_norm (normalized viability) ([4]; MFE319, Concentration 5000): 0.2865 | mean_norm (normalized viability) ([4]; MFE319, Concentration 10000): 0.2268 | relative viability, replicates (sheet 4E) ([4]; log Concentration (nM) 0.68867): 1.049 and 0.9314 and 0.9072 and 0.917 | relative viability, replicates (sheet 4E) ([4]; log Concentration (nM) 0.9897): 0.9806 and 0.996 and 0.993 and 0.8521 | relative viability, replicates (sheet 4E) ([4]; log Concentration (nM) 1.29073): 0.9742 and 1.022 and 0.9775 and 0.9343 | relative viability, replicates (sheet 4E) ([4]; log Concentration (nM) 1.59176): 1.009 and 1.026 and 0.9509 and 0.8871 | relative viability, replicates (sheet 4E) ([4]; log Concentration (nM) 1.89279): 0.9459 and 0.9044 and 0.9452 and 0.8983 | relative viability, replicates (sheet 4E) ([4]; log Concentration (nM) 2.19382): 0.8852 and 0.9848 and 0.9106 and 0.9206 | relative viability, replicates (sheet 4E) ([4]; log Concentration (nM) 2.49485): 1.036 and 1.016 and 1.021 and 0.9075 | relative viability, replicates (sheet 4E) ([4]; log Concentration (nM) 2.79588): 0.9347 and 0.9684 and 0.8932 and 0.8433 | relative viability, replicates (sheet 4E) ([4]; log Concentration (nM) 3.09691): 0.6355 and 0.6443 and 0.6092 and 0.549 | relative viability, replicates (sheet 4E) ([4]; log Concentration (nM) 3.39794): 0.3339 and 0.3826 and 0.2998 and 0.2608 | relative viability, replicates (sheet 4E) ([4]; log Concentration (nM) 3.69897): 0.3202 and 0.3151 and 0.2607 and 0.2498 | viability, replicates (sheet 4G) [4, 10]: 87.9896 and 96.6442 and 88.8312 | viability, replicates (sheet 4G) [4, 11]: 105.101 and 108.114 and 111.169 | viability, replicates (sheet 4G) ([4]; p53-01 Concentration (µM) 0.15625): 94.6597 and 96.7065 and 100.094 and 89.7143 | viability, replicates (sheet 4G) ([4]; p53-01 Concentration (µM) 0.3125): 90.6182 and 88.5922 and 96.6649 and 91.0338 | viability, replicates (sheet 4G) [4, 12]: 77.5481 and 91.8338 and 80.5818 | viability, replicates (sheet 4G) ([4]; p53-01 Concentration (µM) 1.25): 68.0623 and 80.2078 and 68.1143 | viability, replicates (sheet 4G) ([4]; p53-01 Concentration (µM) 2.5): 46.5039 and 41.4649 and 46.0156 | viability, replicates (sheet 4G) ([4]; p53-01 Concentration (µM) 5): 29.174 and 32.0623 and 26.6805 | viability, replicates (sheet 4G) ([4]; p53-01 Concentration (µM) 10): 23.1584 and 24.4468 and 23.2416 | rescue of viability decline by PMV6 ([4]; p53-01 with PMV6 2.5 μM, CTG 4 days): partially compete the decline in cell viability
